Test results reported in US12215133B2 (BrightGene Bio-Medical Technology Co., Ltd., priority 2021, dated 2025).
Read-outs that look alike come from different tables or passages of the source. Marks after values point to notes of the source that are not given here.

Tested on: C57BL/6 mouse model having STZ-HFD feed-induced diabetes combined NASH
Assay type: in vivo
Conditions: STZ+HFD C57BL/6 mice; for Fasting blood glucose / Ballooning lesion (score) / Inflammatory cell infiltration (score) / Steatosis (score) / Total score of NAS / Fibrosis percentage / % HbAC (glycosylated hemoglobin) / ALT / AST / HDL-c / LDL-c / TC / TG / Percentage of decrease in % HbAC: Mean ± SEM; for Ballooning lesion (score) / Inflammatory cell infiltration (score) / Steatosis (score) / Total score of NAS / Fibrosis percentage / % HbAC (glycosylated hemoglobin) / ALT / AST / HDL-c / LDL-c / TC / TG: 7 weeks; for Ballooning lesion (score) / Inflammatory cell infiltration (score) / Steatosis (score) / Total score of NAS: liver H&E; for Ballooning lesion (score) / Inflammatory cell infiltration (score) / Steatosis (score): NAS criteria; for Fibrosis percentage: liver sirius red staining; for % HbAC (glycosylated hemoglobin): peripheral blood; for ALT / AST / HDL-c / LDL-c / TC / TG: serum; for HbA1c % decreased by, taking the HbA1C % of the model group as the baseline value: FIG. 20; for Percentage of decrease in % HbAC: model group as baseline; for Number of animal deaths: 13 enrolled
Method: According to the dosage regimen, a certain amount of Tirzepatide and BG128 were weighed and the vehicle (pH=7.0, 20 mM sodium citrate buffer) was added to formulated to the corresponding concentration.
• Germline: C57BL/6 • Grade: SPF level • Number and gender: 30 pregnant female mice • Supplier: Shanghai Jihui Laboratory Animal Care Co., Ltd. 1.3.2 Animal Feeding Management
Animals were kept in the barrier system, the environmental conditions in the animal room were controlled as room temperature of 20° C.-26° C. and humidity of 40%-70%, and the breeders recorded once every morning and afternoon. Free drinking and normal feeding.
Newborn male mice were subcutaneously injected with STZ (100 μg/mouse) within 48 h of birth and fed by the female mice for four weeks, then the fasting blood glucose of the male mice was determined.
10 newborn male mice were selected, without STZ injection, and fed by the female mice for four weeks. The male mice were separated into cages and fed with normal maintenance feed and used as the normal control group; other mice were fed with HFD feed for one week, the fasting blood glucose of the animals was determined, and according to the fasting blood glucose and body weight, the animals were randomly grouped into: normal control group, model group, Tirzepatide—0.15 mg/kg group, BG128—0.05 mg/kg group, BG128—0.15 mg/kg group, and BG128—0.5 mg/kg group, and see Table 12 for details.
Administration began on the first day of week 2 of HFD feed feeding, and the experiment was ended after 7 weeks of continuous administration.
Observation was performed at the start of the experiment once a day until the end of the experiment.
The animals were weighed once every three days from the time of feeding with HFD feed until the end of the experiment.
The food intake of the animals was recorded from the time of feeding with HFD feed until the end of the experiment. The remaining amount was weighed before administration each time.
The fasting blood glucose was determined using the Roche blood glucose meter after 4 weeks of breast-feeding by the female mouse (that is, before HFD feeding), before administration, and 1 week, 2 weeks, 3 weeks, 4 weeks, 5 weeks, 6 weeks and 7 weeks after administration and at the end point of experiment.
3 days after the last administration, the animals were weighed and fasted for 6 hours; all experimental animals were anesthetized by intraperitoneal injection of pentobarbital sodium, non-anticoagulated whole blood was collected through the orbital venous plexus, stood at room temperature for 30 minutes, and centrifuged at 5000 rpm for 5 minutes, the serum was separated and frozen at −80° C. for the biochemical determination; and EDTA-K2 anticoagulated whole blood was collected through the orbital venous plexus and placed on wet ice for the determination of HbA1C content.
The serum sample was taken from −80° C., and the contents of ALT, AST, TG, TC, HDL-c and LDL-c in serum and HbA1C in whole blood were determined by Hitachi 7060 automatic biochemical detector, and the content of insulin was determined by enzyme-linked immunosorbent assay kit.
The mice were dissected according to procedure. After perfusion with pre-cooled normal saline, the liver was taken, photographed, weighed, soaked in 10% formalin and fixed for pathological HE staining. Liver paraffin sections of all animals were stained with HE according to KCI pathological staining standard SOP. All the stained sections were panoramically scanned by NanoZoomer Digital Pathology (S210, Hamamaci, Japan) scanner, and then observed at different magnifications by selecting different fields of view.
The mice were dissected according to procedure. After perfusion with pre-cooled normal saline, the liver was taken, photographed, weighed, soaked in 10% formalin and fixed for pathological sirius red (SR) staining. Liver paraffin sections were stained with SR according to KCI pathological staining standard SOP.

[1] = 0.05 mg/kg s.c. once every three days
[2] = 0.15 mg/kg s.c. once every three days
[3] = 0.5 mg/kg s.c. once every three days

CNC(CCCCNC(=O)COCCOCCOCCNC(=O)COCCOCCOCCNC(=O)CCC(NC(=O)CC(=O)O)C(=O)O)C(N)=O (centres unmarked) [BG128]
Fasting blood glucose (0.05 mg/kg group, Before HFD (baseline)): 18.28 ± 1.18 mmol/L
Fasting blood glucose (0.05 mg/kg group, Before administration (baseline)): 25.59 ± 0.91 mmol/L
Ballooning lesion (score) [1]: 0.00 ± 0.00
Inflammatory cell infiltration (score) [1]: 0.91 ± 0.08ª
Steatosis (score) [1]: 0.52 ± 0.12ª
Total score of NAS [1]: 1.42 ± 0.14ª
Fibrosis percentage [1]: 1.11 ± 0.05^a %
% HbAC (glycosylated hemoglobin) [1]: 1.00 ± 0.23
ALT [1]: 73.97 ± 9.20 U/L
AST [1]: 155.44 ± 10.85 U/L
HDL-c [1]: 2.30 ± 0.09 mmol/L
LDL-c [1]: 0.56 ± 0.03^b mmol/L
TC [1]: 3.81 ± 0.15^c mmol/L
TG [1]: 1.09 ± 0.20^b mmol/L
Fasting blood glucose (0.05 mg/kg s.c. once every three days, Administration for 1 week): 15.62 ± 1.42^a mmol/L
Fasting blood glucose (0.05 mg/kg s.c. once every three days, Administration for 2 weeks): 14.13 ± 1.61^a mmol/L
Fasting blood glucose (0.05 mg/kg s.c. once every three days, Administration for 3 weeks): 16.89 ± 1.85^a mmol/L
Fasting blood glucose (0.05 mg/kg s.c. once every three days, Administration for 4 weeks): 12.89 ± 1.83^a mmol/L
Fasting blood glucose (0.05 mg/kg s.c. once every three days, Administration for 5 weeks): 18.32 ± 1.62^a mmol/L
Fasting blood glucose (0.05 mg/kg s.c. once every three days, Administration for 6 weeks): 21.82 ± 2.11^a mmol/L
Fasting blood glucose (0.05 mg/kg s.c. once every three days, Administration for 7 weeks): 18.89 ± 1.89^a mmol/L
Fasting blood glucose (0.05 mg/kg s.c. once every three days, Endpoint): 15.81 ± 1.83^a mmol/L
serum insulin concentration (0.05 mg/kg s.c. once every three days, FIG. 19): decreased
HbA1c % decreased by, taking the HbA1C % of the model group as the baseline value [1]: 0.97%
Percentage of decrease in % HbAC [1]: −0.97 ± 0.23
Fasting blood glucose (0.15 mg/kg group, Before HFD (baseline)): 17.69 ± 0.81 mmol/L
Fasting blood glucose (0.15 mg/kg group, Before administration (baseline)): 25.71 ± 0.91 mmol/L
tolerance of model animals [2]: good tolerance
Ballooning lesion (score) [2]: 0.00 ± 0.00ª
Inflammatory cell infiltration (score) [2]: 0.90 ± 0.06ª
Steatosis (score) [2]: 0.46 ± 0.13ª
Total score of NAS [2]: 1.36 ± 0.15ª
Fibrosis percentage [2]: 1.10 ± 0.04^b %
% HbAC (glycosylated hemoglobin) [2]: 1.31 ± 0.19
ALT [2]: 67.58 ± 7.73^a U/L
AST [2]: 152.48 ± 6.56^a U/L
HDL-c [2]: 1.83 ± 0.22 mmol/L
LDL-c [2]: 0.65 ± 0.10^c mmol/L
TC [2]: 3.25 ± 0.12^c mmol/L
TG [2]: 0.84 ± 0.12^b mmol/L
Fasting blood glucose (0.15 mg/kg s.c. once every three days, Administration for 1 week): 15.43 ± 1.66^a mmol/L
Fasting blood glucose (0.15 mg/kg s.c. once every three days, Administration for 2 weeks): 14.61 ± 1.45^a mmol/L
Fasting blood glucose (0.15 mg/kg s.c. once every three days, Administration for 3 weeks): 14.83 ± 1.49^a mmol/L
Fasting blood glucose (0.15 mg/kg s.c. once every three days, Administration for 4 weeks): 14.52 ± 2.09^a mmol/L
Fasting blood glucose (0.15 mg/kg s.c. once every three days, Administration for 5 weeks): 15.75 ± 1.81^a mmol/L
Fasting blood glucose (0.15 mg/kg s.c. once every three days, Administration for 6 weeks): 17.88 ± 2.05^a mmol/L
Fasting blood glucose (0.15 mg/kg s.c. once every three days, Administration for 7 weeks): 17.26 ± 1.97^a mmol/L
Fasting blood glucose (0.15 mg/kg s.c. once every three days, Endpoint): 16.85 ± 2.04^a mmol/L
serum insulin concentration (0.15 mg/kg s.c. once every three days, FIG. 19): statistically significant compared with the db/db-NDJ group
HbA1c % decreased by, taking the HbA1C % of the model group as the baseline value [2]: 0.66%
Percentage of decrease in % HbAC [2]: −0.66 ± 0.19
Fasting blood glucose (0.5 mg/kg group, Before HFD (baseline)): 18.59 ± 0.88 mmol/L
Fasting blood glucose (0.5 mg/kg group, Before administration (baseline)): 25.81 ± 1.08 mmol/L
tolerance of model animals (0.50 mg/kg s.c. once every three days): good tolerance
Ballooning lesion (score) [3]: 0.00 ± 0.00
Inflammatory cell infiltration (score) [3]: 1.03 ± 0.05ª
Steatosis (score) [3]: 0.33 ± 0.08ª
Total score of NAS [3]: 1.36 ± 0.10ª
Fibrosis percentage [3]: 1.07 ± 0.05^c %
% HbAC (glycosylated hemoglobin) [3]: 0.94 ± 0.25^a
ALT [3]: 58.46 ± 5.38^b U/L
AST [3]: 150.54 ± 6.26^a U/L
HDL-c [3]: 2.13 ± 0.13 mmol/L
LDL-c [3]: 0.62 ± 0.03^c mmol/L
TC [3]: 3.53 ± 0.09^c mmol/L
TG [3]: 0.88 ± 0.14^b mmol/L
Fasting blood glucose (0.5 mg/kg s.c. once every three days, Administration for 1 week): 11.39 ± 0.86^a mmol/L
Fasting blood glucose (0.5 mg/kg s.c. once every three days, Administration for 2 weeks): 12.82 ± 1.12^a mmol/L
Fasting blood glucose (0.5 mg/kg s.c. once every three days, Administration for 3 weeks): 13.35 ± 1.37^a mmol/L
Fasting blood glucose (0.5 mg/kg s.c. once every three days, Administration for 4 weeks): 11.39 ± 1.20^a mmol/L
Fasting blood glucose (0.5 mg/kg s.c. once every three days, Administration for 5 weeks): 12.31 ± 1.47^a mmol/L
Fasting blood glucose (0.5 mg/kg s.c. once every three days, Administration for 6 weeks): 12.17 ± 1.70^abd mmol/L
Fasting blood glucose (0.5 mg/kg s.c. once every three days, Administration for 7 weeks): 10.45 ± 1.34^acd mmol/L
Fasting blood glucose (0.5 mg/kg s.c. once every three days, Endpoint): 12.27 ± 1.61^a mmol/L
serum insulin concentration (0.5 mg/kg s.c. once every three days, FIG. 19): statistically significant compared with the db/db-NDJ group
HbA1c % decreased by, taking the HbA1C % of the model group as the baseline value [3]: 1.04%
Percentage of decrease in % HbAC [3]: −1.04 ± 0.25
Number of animal deaths (Group-3/Group-5, 0.15 mg/kg s.c. once every three days): 0
Number of animal deaths (Group-4, 0.05 mg/kg s.c. once every three days): 2 (Day 45, 51)
Number of animal deaths (Group-6, 0.5 mg/kg s.c. once every three days): 0
body weight after the first administration (Tirzepatide 0.15 mg/kg, BG128 0.05, 0.15, 0.5 mg/kg s.c., FIG. 16): positively correlated with the administration dose
food intake compared with Tirzepatide (equal dose (0.15 mg/kg s.c.), FIG. 17): lower than that of the Trizepatide administration animals in the group with the equal dose
effect on serum insulin compared with Tirzepatide (equal dose (0.15 mg/kg s.c.), FIG. 19): better than that of the Tirzepatide group at an equal dose
